Test results from paper PMC10258794, “To Fold or Not to Fold: Diastereomeric Optimization of an α-Helical Antimicrobial Peptide” (Journal of Medicinal Chemistry, 2023).
Values after ≈ are worked out from the molar mass of the structure shown. Like-named read-outs stand apart in the source and are kept apart here.

Assays:
[1] = EYPC vesicle leakage assay; assay type: biochemical; settings: 10 μg/mL of compound; 10 mM TRIS, 107 mM NaCl, pH 7.4
Method: 5(6)-carboxyfluorescein (CF) was purchased from Sigma. EYPC, EYPG, and a Mini-Extruder were purchased from Avanti Polar Lipids. Egg PC or Egg PG thin lipid layers were prepared by evaporating a solution of 100 mg of EYPC or EYPG in 4 mL of MeOH/CHCl3 (1:1) on a rotary evaporator at room temperature and then dried in vacuo overnight. […] Extravesicular components were removed by gel filtration (Sephadex G-50) with 10 mM TRIS, 107 mM NaCl, pH 7.4 buffer. Final conditions: ∼2.5 mM PC or PG; inside: 50 mM CF, 10 mM TRIS, 10 mM NaCl, pH 7.4 buffer; outside: 10 mM TRIS, 107 mM NaCl, pH 7.4. […] The CF efflux was monitored at λem 517 nm (λex 492 nm) as a function of time after addition of the desired volume of peptide from 2 mg/mL stock in mQ water at t = 45 s, 10 and 50 μg/mL were monitored for both EYPC and EYPG. […] Fluorescence intensities were then normalized to the maximal emission intensity using I(t) = (It – I0)/(I∞ – I0) where I0 = It at peptide addition, I∞ = It at saturation of lysis.

[2] = system: Pseudomonas aeruginosa, Klebsiella pneumoniae, Acinetobacter baumannii, Escherichia coli, and methicillin-resistant Staphylococcus aureus; settings: summary of Table 1
In short: (§1)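 Compounds were 2-fold serially diluted from a 2 mg/mL stock and plates were incubated statically for 16–20 h at 37 °C. MIC is the lowest concentration preventing visible growth, read after MTT staining.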

A. baumannii ATCC19606 = system: A. baumannii ATCC19606
In short: as §1

E. coli W3110 = system: E. coli W3110
In short: as §1

P. aeruginosa PAO1 = system: P. aeruginosa PAO1
In short: as §1

K. pneumoniae NCTC418 = system: K. pneumoniae NCTC418
In short: as §1

S. aureus COL MRSA = settings: for MIC S. aureus COL MRSA: MH broth pH 7.4, 16–20 h, 37 °C; for MIC S. aureus COL: supplementary CSV, ranges of Table 1 given as one number
In short: as §1

S. aureus Newman = settings: for MIC S. aureus Newman: MH broth pH 7.4, 16–20 h, 37 °C; for MIC S. aureus Newmann: supplementary CSV
Staphylococcus epidermis = assay: MIC broth microdilution, Staphylococcus epidermis; assay type: cell-based; settings: pH 7.4
Method: (§2) Antimicrobial activity was determined for all peptides on E. coli W3110, P. aeruginosa PAO1, A. baumannii ATCC19606, K. pneumoniae NCTC418, and methicillin-resistant S. aureus COL and for selected peptides on P. aeruginosa PA14 and the polymyxin B-resistant derivatives PA14 4.13, PA14 4.18, and PA14 2P4 as well as the clinical isolates ZEM-1A and ZEM9A, K. pneumoniae OXA-48, Enterobacter cloacae, Stenotrophomonas maltophilia, B. cenocepacia, and Staphylococus epidermis. To determine the MIC, the broth microdilution method was used.[75] A single bacterial colony was grown in LB medium overnight at 37 °C and 180 rpm shaking. The compounds were prepared as stock solutions of 2 mg/mL in sterilized milliQ deionized water, added to the first well of 96-well sterile, polypropylene round-bottom microtiter plates (TPP, untreated, Corning Incorporated, Kennebunk, USA), and diluted serially by 1/2. […] The bacterial inoculum was prepared by measuring the absorbance of the overnight culture, which was diluted to concentration of the bacteria was quantified by measuring absorbance at 600 nm and diluted to an OD600 of 0.022 in MH medium pH 7.4 (Sigma-Aldrich, Buchs, Switzerland). The sample solutions (150 μL) were mixed with 4 μL of diluted bacterial suspension with a final inoculation of about 5 × 10^5 CFU. For each test, two columns of the plate were kept for sterility control (MH medium only) and growth control (MH medium with bacterial inoculum, no compound). […] The plates were incubated at 37 °C for 16–20 h under static conditions. 15 μL of 3-(4,5-dimethylthiazol-2-yl)-2,5-diphenyltetrazolium bromide (MTT)[76] (1 mg/mL in sterilized milliQ deionized water) was added to each well, and the plates were incubated at room temperature until MTT staining was completed. The MIC was defined as the lowest concentration of the dendrimer that inhibits the visible growth of the tested bacteria (yellow) with the unaided eye.

K. pneumoniae Oxa-48 = assay: MIC broth microdilution, K. pneumoniae Oxa-48; assay type: cell-based, Klebsiella pneumoniae; settings: MDR strain; MH broth pH 7.4, 16–20 h, 37 °C
Method: as §2

A549 cells = assay: Alamar blue cytotoxicity, A549; assay type: cell-based, human; settings: 24 h, mean ± SD, n = 3, read-out: Toxicity on A549 lung cancern cells
Method: (§3) The A549 human lung adenocarcinoma cells are derived from a patient and were kindly given to us by Dr. Georgia Konstatinidou (Pharmacology Institute, Bern University). HEK293T cells were obtained from ATCC (CRL-11268). A549 and HEK293 were cultured in an incubator at 37 °C with 5% CO2 in RPMI-1640 (Gibco) and DMEM (Gibco) containing 10% fetal bovine serum (Thermo Fisher), 100 I.U./mL penicillin, and 100 μg/mL streptomycin (Gibco).
(§4) The viability of the cells was assessed with an AlamarBlue assay (ThermoFisher). Cells were seeded into 96-well plates, 4000 cells/well (HEK293) and 8000 cells/well (A549), the day before the experiment. Cells were then treated with the increasing concentration of the compound and incubated for 24 h at 37 °C in the presence of 5% CO2. The next day, the medium was removed and replaced by a 10% AlamarBlue solution in full growth medium (DMEM or RPMI-1640). The cells were incubated for 3–5 h at 37 °C with 5% CO2 in a humidified atmosphere. The fluorescence was then measured on a Tecan Infinite M1000 Pro plate reader at λex 560 nm and λem 590 nm. The value was normalized according to the untreated cells.

Burkolderia cenocepacia = assay: microbe, parasite or virus in culture; settings: for MIC Burkolderia cenocepacia: MDR strain, MH broth pH 7.4, 16–20 h, 37 °C
P. aeruginosa PA14 = assay: microbe, parasite or virus in culture; settings: for MIC PA14: MH broth pH 7.4, 16–20 h, 37 °C; for MIC P. aeruginosa PA14: supplementary CSV
In short: as §1

Enterobacter cloacae = assay: microbe, parasite or virus in culture; settings: pH 7.4
In short: as §1

PA14 2P4 (pmrB) = assay: microbe, parasite or virus in culture; settings: supplementary CSV
In short: as §1

PA14 4.13 (phoQ) = assay: microbe, parasite or virus in culture; settings: supplementary CSV
In short: as §1

P. aeruginosa ZEM-1A = assay: microbe, parasite or virus in culture; settings: pH 7.4
In short: as §1

PA14 4.18 (pmrB) = assay: microbe, parasite or virus in culture; settings: supplementary CSV
In short: as §1

[3] = system: Stenotrophomonas maltophilia; assay: microbe, parasite or virus in culture; assay type: cell-based; settings: pH 7.4
Method: as §2

HEK293 cells = assay: Alamar blue cytotoxicity, HEK293; assay type: cell-based, human; settings: 24 h, mean ± SD, n = 3, read-out: Toxicity on HEK293 cells
Method: as §3, §4

P. aeruginosa ZEM9A = assay: microbe, parasite or virus in culture; assay type: cell-based, Pseudomonas aeruginosa; settings: pH 7.4
Method: as §2

[4] = MH broth pH 7.4, 16–20 h, 37 °C
[5] = supplementary CSV, ranges of Table 1 given as one number

SMILES | EYPC vesicle leakage (%) [1] | MIC, span over E. coli, P. aeruginosa, and A. baumannii [2] | MIC A. baumannii ATCC19606 (A. baumannii ATCC19606; [4]) | MIC A. baumannii ATCC19606 (A. baumannii ATCC19606; [5]) | MIC E. coli W3110 (E. coli W3110; [4]) | MIC E. coli W3110 (E. coli W3110; [5]) | MIC P. aeruginosa PAO1 (P. aeruginosa PAO1; [4]) | MIC P. aeruginosa PAO1 (P. aeruginosa PAO1; [5]) | MIC K. pneumoniae NCTC418 (K. pneumoniae NCTC418; [4]) | MIC K. pneumoniae NCTC418 (K. pneumoniae NCTC418; [5]) | MIC S. aureus COL MRSA (S. aureus COL MRSA) | MIC S. aureus COL (S. aureus COL MRSA) | MIC S. aureus Newman (S. aureus Newman) | MIC S. aureus Newmann (S. aureus Newman) | MIC Staphylococcus epidermis (Staphylococcus epidermis) | MIC K. pneumoniae Oxa-48 (K. pneumoniae Oxa-48) | IC50 (A549 cells) | MIC Burkolderia cenocepacia (Burkolderia cenocepacia) | MIC PA14 (P. aeruginosa PA14) | MIC P. aeruginosa PA14 (P. aeruginosa PA14) | further results
CC(C)C[C@H](NC(=O)[C@H](CC(C)C)NC(=O)[C@H](CC(C)C)NC(=O)[C@@H](CCCCN)NC(=O)[C@@H](CC(C)C)NC(=O)[C@@H](CC(C)C)NC(=O)[C@@H](CCCCN)NC(=O)[C@H](CC(C)C)NC(=O)[C@H](CC(C)C)NC(=O)[C@H](CCCCN)NC(=O)[C@@H](N)CCCCN)C(N)=O [HP13, KKLLkllkLLL] | 8% | 4 to 32 µg/mL | 16 to 32 µg/mL | 24 µg/mL (≈ 18.2 µM) | 4 to 8 µg/mL | 6 µg/mL (≈ 4.54 µM) | 16 to 32 µg/mL | 24 µg/mL (≈ 18.2 µM) | – | – | – | – | – | – | – | – | – | – | – | – | –
CC(C)C[C@H](NC(=O)[C@H](CC(C)C)NC(=O)[C@H](CC(C)C)NC(=O)[C@H](CCCCN)NC(=O)[C@H](CC(C)C)NC(=O)[C@H](CC(C)C)NC(=O)[C@H](CCCCN)NC(=O)[C@H](CC(C)C)NC(=O)[C@H](CC(C)C)NC(=O)[C@H](CCCCN)NC(=O)[C@@H](N)CCCCN)C(N)=O [ln65] | – | – | 2 to 4 µg/mL | 3 µg/mL (≈ 2.27 µM) | 4 µg/mL (≈ 3.03 µM) | – | 2 to 4 µg/mL | 3 µg/mL (≈ 2.27 µM) | 4 µg/mL (≈ 3.03 µM) | 4 µg/mL (≈ 3.03 µM) | 4 µg/mL (≈ 3.03 µM) | 4 µg/mL (≈ 3.03 µM) | 2 µg/mL (≈ 1.51 µM) | 2 µg/mL (≈ 1.51 µM) | 2 µg/mL (≈ 1.51 µM) | 2 µg/mL (≈ 1.51 µM) | 20 ± 0.9 µM | >64 µg/mL | 2 to 4 µg/mL | 3 µg/mL (≈ 2.27 µM) | MIC B. cenocepacia (Burkolderia cenocepacia; supplementary CSV): > 64 µg/mL; MIC Enterobacter cloacae (Enterobacter cloacae): 2 µg/mL (≈ 1.51 µM); MIC P. aeruginosaPA14 2P4 (PA14 2P4 (pmrB)): 32 µg/mL (≈ 24.2 µM); MIC P. aeruginosa PA14 4.13 (PA14 4.13 (phoQ)): 4 µg/mL (≈ 3.03 µM); MIC ZEM-1A (P. aeruginosa ZEM-1A): 4 µg/mL (≈ 3.03 µM); MIC P. aeruginosa PA14 4.18 (PA14 4.18 (pmrB)): 32 µg/mL (≈ 24.2 µM); MIC Stenotrophomonas maltophilia [3]: 2 µg/mL (≈ 1.51 µM); IC50 (HEK293 cells): 27 ± 5.4 µM; MIC ZEM9A (P. aeruginosa ZEM9A): 4 µg/mL (≈ 3.03 µM)
CC(C)C[C@H](NC(=O)[C@H](CC(C)C)NC(=O)[C@H](CC(C)C)NC(=O)[C@H](CCCCN)NC(=O)[C@H](CC(C)C)NC(=O)[C@H](CC(C)C)NC(=O)[C@H](CCCCN)NC(=O)[C@H](CC(C)C)NC(=O)[C@H](CC(C)C)NC(=O)[C@@H](CCCCN)NC(=O)[C@@H](N)CCCCN)C(N)=O [HP1] | – | – | 4 µg/mL (≈ 3.03 µM) | 4 µg/mL (≈ 3.03 µM) | 2 µg/mL (≈ 1.51 µM) | – | 4 µg/mL (≈ 3.03 µM) | 4 µg/mL (≈ 3.03 µM) | 4 to 8 µg/mL | 6 µg/mL (≈ 4.54 µM) | 2 µg/mL (≈ 1.51 µM) | 2 µg/mL (≈ 1.51 µM) | 2 µg/mL (≈ 1.51 µM) | 2 µg/mL (≈ 1.51 µM) | 2 µg/mL (≈ 1.51 µM) | 8 µg/mL (≈ 6.05 µM) | 2.7 ± 2.4 µM | >64 µg/mL | 2 µg/mL (≈ 1.51 µM) | 2 µg/mL (≈ 1.51 µM) | MIC Enterobacter cloacae (Enterobacter cloacae): 2 µg/mL (≈ 1.51 µM); MIC P. aeruginosaPA14 2P4 (PA14 2P4 (pmrB)): 64 µg/mL (≈ 48.4 µM); MIC P. aeruginosa PA14 4.13 (PA14 4.13 (phoQ)): 4 µg/mL (≈ 3.03 µM); MIC ZEM-1A (P. aeruginosa ZEM-1A): 2 µg/mL (≈ 1.51 µM); MIC P. aeruginosa PA14 4.18 (PA14 4.18 (pmrB)): 32 µg/mL (≈ 24.2 µM); MIC Stenotrophomonas maltophilia [3]: 4 µg/mL (≈ 3.03 µM); IC50 (HEK293 cells): 42.9 ± 2.6 µM; MIC ZEM9A (P. aeruginosa ZEM9A): 4 µg/mL (≈ 3.03 µM)
CC(C)C[C@H](NC(=O)[C@H](CC(C)C)NC(=O)[C@@H](CC(C)C)NC(=O)[C@H](CCCCN)NC(=O)[C@@H](CC(C)C)NC(=O)[C@@H](CC(C)C)NC(=O)[C@H](CCCCN)NC(=O)[C@@H](CC(C)C)NC(=O)[C@@H](CC(C)C)NC(=O)[C@H](CCCCN)NC(=O)[C@@H](N)CCCCN)C(N)=O [HP25, KKllKllKlLL] | 4% | 4 to 32 µg/mL | 32 µg/mL (≈ 24.2 µM) | 32 µg/mL (≈ 24.2 µM) | 8 to 16 µg/mL | 12 µg/mL (≈ 9.08 µM) | 8 to 16 µg/mL | 12 µg/mL (≈ 9.08 µM) | – | – | – | – | – | – | – | – | – | – | – | – | –
